# Earlier results as cited in patent US8362030B2, “Tricyclic derivatives as inhibitors of poly(ADP-ribose) polymerase (PARP)” (Istituto di Ricerche di Biologia Molecolare P. Angeletti …, priority 2008, dated 2013).
# System: ischemia and reperfusion of the heart
# Conditions: rabbits
Structure (SMILES),reduction in infarct size (single injection 1 mg/kg),"reduction in infarct size in the heart (single injection 10 mg/kg, one minute before occlusion or before reperfusion)"
"Oc1cccc2c(O)nccc12 [1,5-dihydroxyisoquinoline]",38-48%,
NC(=O)c1cccc(N)c1 [3-amino-benzamide],,32-42%
